Source: patent US20220048919A1, “HETEROARYLDIHYDROPYRIMIDINE DERIVATIVES AND METHODS OF TREATING HEPATITIS B INFECTIONS” (Janssen Phrmaceutica NV, priority 2018, published 2022)

How the values were obtained:
[1] = Cytotoxicity determination in HepG2.2.15 cells (CCK-8 cell viability); assay type: cell-based; conditions: human, 6 days of compound treatment, CCK-8 assay
Experimental: (§1) HepG2.2.15 (the HepG2.2.15 cell line can be produced by transfection of the HepG2 cell line as described in Sells, Chen, and Acs 1987 (Proc. Natl. Acad. Sci. USA 84:1005-1009), and the HepG2 cell line is available from ATCC® under number HB-8065™).
(§2) HepG2.2.15 cells were plated into 96-well plate in 2% FBS culture medium at the density of 40,000 cells/well and 5,000 cells/well for HBV inhibitory activity and cytotoxicity determination, respectively. After incubation at 37° C., 5% CO2 overnight, cells were treated with medium containing compounds for 6 days with medium and compounds refreshed after 3 days of treatment. Each compound was tested in a 1:3 serial dilutions at 8 different concentrations in triplicate. The highest concentration of the compounds was 10 uM or 1 uM for anti-HBV activity assay and 100 uM for cytotoxicity determination.
Cell viability was determined by CCK-8 assay. After 6 days of compounds treatment, 20 μl CCK-8 reagents were added to each well of cytotoxicity assay plates. Cell plates were incubated at 37° C., 5% CO2 for 2.5 h. The absorbance at 450 nm wavelength and the absorbance at 630 nm wavelength as reference was measured.
(§3) EC50 and CC50 values are calculated by the […] PRISM software.

HBV = assay: Anti-HBV activity in HepG2.2.15 cells (HBV DNA in culture medium by qPCR); assay type: cell-based; conditions: Hepatitis B virus, 144 h, 6 days of compound treatment
Experimental: as §1, §2
The change of HBV DNA level induced by the compounds was assessed by quantitative real-time polymerase chain reaction (qPCR). Briefly, the HBV DNA in the culture medium was extracted using QIAamp 96 DNA Blood Kit according to the manual and then quantified by real-time PCR assay using the primers and probe in the table 1 below.
as §3

CCOC(=O)C1=C(CN2CCN3C(=O)N(CC(C)(C)C(=O)O)CC3(C)C2)NC(c2nccs2)=N[C@H]1c1cccc(F)c1C (single isomer, unassigned) [Compound 1B]
CC50 at 6 days [1]: 24.3 µM | EC50 (HBV): 0.009 µM

CCOC(=O)C1=C(CN2CCN3C(=S)N(CC(C)(C)C(=O)O)CC3(C)C2)NC(c2nccs2)=N[C@H]1c1cccc(F)c1C (single isomer, unassigned) [Compound 6A, 3-((R*)-7-(((S)-5-(Ethoxycarbonyl)-6-(3-fluoro-2-methylphenyl)-2-(thiazol-2-yl)-3,6-dihydropyrimidin-4-yl)methyl)-8a-methyl-3-thioxohexahydroimidazo[1,5-a]pyrazin-2(3H)-yl)-2,2-dimethylpropanoic Acid]
CC50 at 6 days [1]: 13 µM | EC50 (HBV): 0.012 µM

CCOC(=O)C1=C(CN2CCN3C(=O)N(CC(C)(C)C(=O)O)C[C@]3(C)C2)NC(c2nccs2)=N[C@H]1c1cccc(F)c1Cl (single isomer, unassigned) [Compound 2A, (S*)-3-(-7-(((R*)-6-(2-Chloro-3-fluorophenyl)-5-(ethoxycarbonyl)-2-(thiazol-2-yl)-3,6-dihydropyrimidin-4-yl)methyl)-8a-methyl-3-oxohexahydroimidazo[1,5-a]pyrazin-2(3H)-yl)-2,2-dimethylpropanoic Acid]
CC50 at 6 days [1]: 19.4 µM | EC50 (HBV): 0.016 µM

CCOC(=O)C1=C(CN2CCN3C(=O)N(CC(C)(C)C(=O)O)CC3(CC)C2)NC(c2nccs2)=N[C@H]1c1cccc(F)c1C (single isomer, unassigned) [Compound 4B, 3-((S*)-7-(((S)-5-(Ethoxycarbonyl)-6-(3-fluoro-2-methylphenyl)-2-(thiazol-2-yl)-3,6-dihydropyrimidin-4-yl)methyl)-8a-ethyl-3-oxohexahydroimidazo[1,5-a]pyrazin-2(3H)-yl)-2,2-dimethylpropanoic Acid]
CC50 at 6 days [1]: 18.5 µM | EC50 (HBV): 0.165 µM

COC(=O)C1=C(CN2CCN3C(=O)N(CC(C)(C)C(=O)O)C[C@]3(C)C2)NC(c2nccs2)=N[C@H]1c1ccc(F)cc1Br (relative stereo) [Compound 3A, 3-((S*)-7-(((R*)-6-(2-Bromo-4-fluorophenyl)-5-(methoxycarbonyl)-2-(thiazol-2-yl)-3,6-dihydropyrimidin-4-yl)methyl)-8a-methyl-3-oxohexahydroimidazo[1,5-a]pyrazin-2(3H)-yl)-2,2-dimethylpropanoic Acid]
CC50 at 6 days [1]: 26.7 µM | EC50 (HBV): 0.038 µM

CCOC(=O)C1=C(CN2CCN3C(=O)N([C@H]4CC[C@H](C(=O)O)CC4)C[C@]3(C)C2)NC(c2nccs2)=N[C@H]1c1cccc(F)c1C (relative stereo) [Compound 5A, (trans)-4-((S)-7-(((S*)-5-(Ethoxycarbonyl)-6-(3-fluoro-2-methylphenyl)-2-(thiazol-2-yl)-3,6-dihydropyrimidin-4-yl)methyl)-8a-methyl-3-oxohexahydroimidazo[1,5-a]pyrazin-2(3H)-yl)cyclohexanecarboxylic Acid]
CC50 at 6 days [1]: 9.2 µM | EC50 (HBV): 0.034 µM
